According to patent US7807702B2 (Eli Lilly and Company, priority 2005, dated 2010):

Target: T1, cloned human glucagon receptor (Homo sapiens, UniProt P47871)
T1 construct: The hGlucR cDNA is subcloned into the expression plasmid phD; expressed in transfected cells; host or cells: 293 HEK cells, hygromycin-selected; crude plasma membranes
Test: Glucagon Receptor (hGlucR) Binding Assay
Procedure: Crude plasma membranes are prepared using cells from suspension culture. […] The second supernate is combined with the first supernate.
The specific activity is 2200 Ci/mmol.

T1 sequence (P47871 26-477): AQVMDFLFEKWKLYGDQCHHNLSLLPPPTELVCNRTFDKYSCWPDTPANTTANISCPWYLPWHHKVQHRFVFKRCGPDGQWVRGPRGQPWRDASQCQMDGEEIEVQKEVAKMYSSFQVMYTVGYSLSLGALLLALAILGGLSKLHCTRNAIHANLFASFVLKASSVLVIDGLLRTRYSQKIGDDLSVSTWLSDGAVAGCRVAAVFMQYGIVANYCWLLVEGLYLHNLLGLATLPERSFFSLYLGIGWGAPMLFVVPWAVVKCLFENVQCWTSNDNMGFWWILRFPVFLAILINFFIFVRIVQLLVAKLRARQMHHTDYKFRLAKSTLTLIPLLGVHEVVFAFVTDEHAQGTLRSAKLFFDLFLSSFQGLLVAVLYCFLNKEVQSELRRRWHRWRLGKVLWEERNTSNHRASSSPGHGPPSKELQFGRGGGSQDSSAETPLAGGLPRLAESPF

Ki: 36 nM
Structure (SMILES): CCCC(Sc1cc(C)c(-c2ccc(C(F)(F)F)cc2)c(C)c1)c1ccc(C(=O)NCc2nnn[nH]2)s1 (stereo not shown)
